Assay results published in EP4389751A1, “HETEROCYCLIC COMPOUNDS AND USES THEREOF” (Kumquat Biosciences Inc., priority 2021, dated 2024).
Where two headings read alike, the source gives them in different places.

Assays:
[1] = biological target: T1, KRAS protein (His-tagged GDP-loaded G12S 1-169) (Homo sapiens, UniProt P01116, G12S); test: Covalent modification of KRAS protein, intact-protein LC-MS; format: binding; conditions: 24hrs at room temperature, KRAS protein ~2 µM
T1 construct: His-tagged GDP-loaded G12S 1-169
How it was run: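 Percent covalent modification derives from deconvoluted intact-mass intensities of compound-adducted versus unmodified KRAS, measured by LC-ESI-MS. Before analysis, ~2 µM GDP-loaded His-KRAS 1-169 was exposed to compound for 24 h at room temperature and acidified with formic acid.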

GP2D cells = test: Cell proliferation assay (CellTiter-Glo), K-Ras G12D cells; format: cell-based; conditions: GP2D cells (K-Ras G12D); read-out: Inhibition of GP2D Cells (IC50)
How it was run: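 CellTiter-Glo luminescence, taken roughly 5 days after dosing, measured growth of G12D-mutant GP2D cells in DMEM/2 mM glutamine/10% FBS. Compound dilution series (e.g., 9 points, 3-fold) added the day after plating. Four-parameter fitting gave IC50.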

A549 cells = test: Cell proliferation assay (CellTiter-Glo), K-Ras G12S cells; format: cell-based; conditions: for IC50: Homo sapiens, A549, A549 cells (K-Ras G12S), read-out: Inhibition of A549 Cells (IC50); for ratio of IC50 against a G12D cell line to IC50 against a G12S cell line: K-Ras G12D cell line such as GP2D relative to K-Ras G12S cell line such as A549, greater than 1, 2, 3, 4, 5, 10, 15 or even greater, 8640 min
Method: A549 (ATCC CRL-185) and LS123 (ATCC CRL-255) cell lines comprise a G12S mutation and can be used to assess Ras cellular signaling in vitro, e.g., in response to the compounds herein. A549 culture medium is prepared with RPMI-1640 and 10% heat-inactivated FBS. LS123 culture medium is prepared with RPMI-1640 and 10% heat-inactivated FBS. A CellTiter-Glo (CTG) luminescent based assay (Promega) is used to assess growth of the cells, as a measurement of the ability of the compounds herein to inhibit Ras signaling in the cells. The cells (e.g., 800 per well) are seeded in their respective culture medium in standard tissue culture-treated 384-well format plates (Falcon #08-772-116) or ultra-low attachment surface 384-well format plates (S-Bio # MS-9384WZ). The day after plating, cells are treated with a dilution series (e.g., a 10 point 3-fold dilution series) of the compounds herein (e.g., approximately 40 µl final volume per well). Cell viability can be monitored (e.g., approximately 6 days later) according to the manufacturer's recommended instructions, where the CellTiter-Glo reagent is added (e.g., approximately 10 µl), vigorously mixed, covered, and placed on a plate shaker (e.g., approximately for 20 min) to ensure sufficient cell lysis prior to assessment of luminescent signal. The IC50 values are determined using the four parameter fit. The resulting IC50 value is a measurement of the ability of the compounds herein to reduce cell growth of Ras-driven cells (e.g., tumor cell lines) in vitro and/or in vivo.

K-Ras G12S = biological target: T2, K-Ras G12S (Homo sapiens, UniProt P01116, G12S); test: HTRF assay of the K-Ras / SOS1 interaction; format: biochemical; conditions: IC50 (against K-Ras G12D) to IC50 (against K-Ras G12S)
T2 construct: made in house; host or cells: E. coli (e.g., BL21 (DE3))
How it was run: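 Compounds (duplicates, 10 µM to 0.01 µM) were incubated ≥~10 min with Eu-labelled GST-K-Ras G12S and XL665-labelled His-hSOS1 in HEPES pH 7.4 buffer containing NaCl, DTT, BSA and Igepal. Disruption measured as HTRF emission ratio 665/620 nm, fitted to IC50.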

Question: `C#Cc1c(F)ccc2cc(O)cc(-c3ncc4c(N5CCCC6(CN(C(=O)n7cncn7)C6)C5)nc(OC[C@@]56CCCN5C[C@H](F)C6)nc4c3F)c12` [Compound A133, (6-(7-(8-ethynyl-7-fluoro-3-hydroxynaphthalen-1-yl)-8-fluoro-2-(((2R,7aS)-2-fluorotetrahydro-1H-pyrrolizin-7a(5H)-yl)methoxy)pyrido[4,3-d]pyrimidin-4-yl)-2,6-diazaspiro[3.5]nonan-2-yl)(1H-1,2,4-triazol-1-yl)methanone] was tested. Which “% G12S Modification at 24 hr.” value [1] did it give?
Answer: The value was “+++ (+++ indicates greater than 20% labelling)”.

Question: What about the IC50 (GP2D cells) of the same molecule?
Answer: Its IC50 is 1000 to 10000 nM.

Question: What about the IC50 (A549 cells; bin ≤ 500 nM) of the same molecule?
Answer: Its IC50 is at most 500 nM.

Question: Which results are given for `C#Cc1c(F)ccc2cc(O)cc(-c3ncc4c(N5CC6CCC(C5)N6C(=O)n5cnc(C#N)c5)nc(OC[C@@]56CCCN5C[C@H](F)C6)nc4c3F)c12` [Compound A255, 1-(3-(7-(8-ethynyl-7-fluoro-3-hydroxynaphthalen-1-yl)-8-fluoro-2-(((2R,7aS)-2-fluorotetrahydro-1H-pyrrolizin-7a(5H)-yl)methoxy)pyrido[4,3-d]pyrimidin-4-yl)-3,8-diazabicyclo[3.2.1]octane-8-carbonyl)-1H-imidazole-4-carbonitrile]?
Answer: % G12S Modification at 24 hr. [1]: ++ (++ indicates between about 1%- 20% labelling); IC50 (GP2D cells): ≤ 1000 nM; IC50 (A549 cells; bin 500 nM to 5 µM): 500 to 5000 nM

Question: What does the source list for `C#Cc1c(F)ccc2cc(O)cc(-c3ncc4c(N5CCCCC6(CN(C(=O)n7cncn7)C6)C5)nc(OC[C@@]56CCCN5C[C@H](F)C6)nc4c3F)c12` [Compound A128, (6-(7-(8-ethynyl-7-fluoro-3-hydroxynaphthalen-1-yl)-8-fluoro-2-(((2R,7aS)-2-fluorotetrahydro-1H-pyrrolizin-7a(5H)-yl)methoxy)pyrido[4,3-d]pyrimidin-4-yl)-2,6-diazaspiro[3.6]decan-2-yl)(1H-1,2,4-triazol-1-yl)methanone]?
Answer: % G12S Modification at 24 hr. [1]: +++ (+++ indicates greater than 20% labelling); IC50 (GP2D cells): ≤ 1000 nM; IC50 (A549 cells; bin ≤ 500 nM): ≤ 500 nM; ratio of IC50 against a G12D cell line to IC50 against a G12S cell line (A549 cells): greater than 1

Question: Which results are given for `N#Cc1c(N)sc2c(F)ccc(-c3c(Cl)cc4c(N5CCOC6(CN(C(=O)n7cncn7)C6)C5)nc(OC[C@@]56CCCN5C[C@H](F)C6)nc4c3F)c12` [Compound A162, 4-(4-(2-(1H-1,2,4-triazole-1-carbonyl)-5-oxa-2,8-diazaspiro[3.5]nonan-8-yl)-6-chloro-8-fluoro-2-(((2R,7aS)-2-fluorotetrahydro-1H-pyrrolizin-7a(5H)-yl)methoxy)quinazolin-7-yl)-2-amino-7-fluorobenzo[b]thiophene-3-carbonitrile]?
Answer: Ratio of IC50 KRAS G12D vs. IC50 KRAS G12S (K-Ras G12S): A (A: indicates that the ratio of IC50 against KrasG12D vs. IC50 against KrasG12S is 1-fold or greater); % G12S Modification at 24 hr. [1]: +++ (+++ indicates greater than 20% labelling); IC50 (A549 cells; bin ≤ 500 nM): ≤ 500 nM

Question: For `N#Cc1c(N)sc2c(F)ccc(-c3c(Cl)cc4c(N5CC(F)(F)C6(CN(C(=O)n7cncn7)C6)C5)nc(OC[C@@]56CCCN5C[C@H](F)C6)nc4c3F)c12` [Compound A199, 2-amino-4-(6-chloro-4-(8,8-difluoro-2-(1H-1,2,4-triazole-1-carbonyl)-2,6-diazaspiro[3.4]octan-6-yl)-8-fluoro-2-(((2R,7aS)-2-fluorotetrahydro-1H-pyrrolizin-7a(5H)-yl)methoxy)quinazolm-7-yl)-7-fluorobenzo[b]thiophene-3-carbonitrile], which “Ratio of IC50 KRAS G12D vs. IC50 KRAS G12S” value (K-Ras G12S) is on record?
Answer: The value was “A (A: indicates that the ratio of IC50 against KrasG12D vs. IC50 against KrasG12S is 1-fold or greater)”.

Question: What about the “% G12S Modification at 24 hr.” value [1] of the same molecule?
Answer: The value was “+++ (+++ indicates greater than 20% labelling)”.

Question: And the “ratio of IC50 against a G12D cell line to IC50 against a G12S cell line” value (A549 cells)?
Answer: The value was “greater than 1”.

Question: How did the “Ratio of IC50 KRAS G12D vs. IC50 KRAS G12S” value (K-Ras G12S) turn out when `Nc1nc2c(-c3c(Cl)cc4c(N5CC6CCC(C5)N6C(=O)n5cncn5)nc(OC[C@@]56CCCN5C[C@H](F)C6)nc4c3F)ccc(F)c2s1` [Compound A111, (3-(7-(2-amino-7-fluorobenzo[d]thiazol-4-yl)-6-chloro-8-fluoro-2-(((2R,7aS)-2-fluorotetrahydro-1H-pyrrolizin-7a(5H)-yl)methoxy)quinazolin-4-yl)-3,8-diazabicyclo[3.2.1]octan-8-yl)(1H-1,2,4-triazol-1-yl)methanone] was run?
Answer: Its value is “A (A: indicates that the ratio of IC50 against KrasG12D vs. IC50 against KrasG12S is 1-fold or greater)”.

Question: What about the IC50 (GP2D cells) of the same molecule?
Answer: The IC50 was at most 1000 nM.

Question: And the IC50 (A549 cells; bin 500 nM to 5 µM)?
Answer: The IC50 was 500 to 5000 nM.

Question: Which results are given for `Nc1nc2c(-c3c(Cl)cc4c(N5CC6CCC(C5)N6C(=O)n5ccnc5)nc(OC[C@@]56CCCN5C[C@H](F)C6)nc4c3F)ccc(F)c2s1` [Compound A289, (3-(7-(2-amino-7-fluorobenzo[d]thiazol-4-yl)-6-chloro-8-fluoro-2-(((2R,7aS)-2-fluorotetrahydro-1H-pyrrolizin-7a(5H)-yl)methoxy)quinazolin-4-yl)-3,8-diazabicyclo[3.2.1]octan-8-yl)(1H-imidazol-1-yl)methanone]?
Answer: Ratio of IC50 KRAS G12D vs. IC50 KRAS G12S (K-Ras G12S): A (A: indicates that the ratio of IC50 against KrasG12D vs. IC50 against KrasG12S is 1-fold or greater); IC50 (GP2D cells): ≤ 1000 nM; IC50 (A549 cells; bin 500 nM to 5 µM): 500 to 5000 nM

Question: Which results are given for `Cc1ncn(C(=O)N2CCCC(Oc3nc(OC[C@@]45CCCN4C[C@H](F)C5)nc4c(F)c(-c5ccc(F)c6sc(N)c(C#N)c56)c(Cl)cc34)CC2)n1` (stereo partly drawn) [Compound A174, 2-amino-4-(6-chloro-8-fluoro-2-(((2R,7aS)-2-fluorotetrahydro-1H-pyrrolizin-7 a(5H)-yl)methoxy)-4-((1-(3-methyl-1H-1 ,2,4-triazole-1-carbonyl)azepan-4-yl)oxy)quinazolin-7-yl)-7-fluorobenzo[b]thiophene-3-carbonitrile]?
Answer: Ratio of IC50 KRAS G12D vs. IC50 KRAS G12S (K-Ras G12S): A (A: indicates that the ratio of IC50 against KrasG12D vs. IC50 against KrasG12S is 1-fold or greater); IC50 (GP2D cells): 1000 to 10000 nM; IC50 (A549 cells; bin 500 nM to 5 µM): 500 to 5000 nM

Question: What does the source list for `Cc1nc(C)n(C(=O)N2CC3(CCCN(c4nc(OC[C@@]56CCCN5C[C@H](F)C6)nc5c(F)c(-c6ccc(F)c7sc(N)c(C#N)c67)c(Cl)cc45)C3)C2)n1` [Compound A190, 2-amino-4-(6-chloro-4-(2-(3,5-dimethyl-1H-1,2,4-triazole-1-carbonyl)-2,6-diazaspiro[3.5]nonan-6-yl)-8-fluoro-2-(((2R,7aS)-2-fluorotetrahydro-1H-pyrrolizin-7a(5H)-yl)methoxy)quinazolin-7-yl)-7-fluorobenzo[b]thiophene-3-carbonitrile]?
Answer: Ratio of IC50 KRAS G12D vs. IC50 KRAS G12S (K-Ras G12S): A (A: indicates that the ratio of IC50 against KrasG12D vs. IC50 against KrasG12S is 1-fold or greater); IC50 (GP2D cells): 1000 to 10000 nM; IC50 (A549 cells; bin 500 nM to 5 µM): 500 to 5000 nM

Question: What does the source list for `N#Cc1c(N)sc2c(F)ccc(-c3c(Cl)cc4c(N5CC6CCC(C5)N6C(=O)n5cc(C(F)(F)F)cn5)nc(OC[C@@]56CCCN5C[C@H](F)C6)nc4c3F)c12` [Compound A122, 2-amino-4-(6-chloro-8-fluoro-2-(((2R,7aS)-2-fluorotetrahydro-1H-pyrrolizin-7 a(5H)-yl)methoxy)-4-(8-(4-(trifluoromethyl)-1H-pyrazole-1-carbonyl)-3,8-diazabicyclo[3.2.1]octan-3-yl)quinazolin-7-yl)-7-fluorobenzo[b]thiophene-3-carbonitrile]?
Answer: Ratio of IC50 KRAS G12D vs. IC50 KRAS G12S (K-Ras G12S): A (A: indicates that the ratio of IC50 against KrasG12D vs. IC50 against KrasG12S is 1-fold or greater); IC50 (GP2D cells): ≤ 1000 nM; IC50 (A549 cells; bin 500 nM to 5 µM): 500 to 5000 nM
